Source: ChEMBL document CHEMBL1133572, “Protease inhibitors: current status and future prospects” (J Med Chem, 2000)
Values belong to the compound of their own block, whether it stands above or below them. Non-standard residues stand in square brackets, D forms with d. Residues, ends and D or L forms follow the SMILES beside them. *: point of attachment. Cbz = O=C(OCc1ccccc1)*; Dap = NC[C@H](N)C(=O)O

Columns and labels:
[1] = test system: Enterovirus; test: Inhibitory activity against the different replication of HRV serotypes and related piocornaviruses A21 and B3, enterovirus 70 and echo virus 11; format: functional, organism-based
[2] = Tmax value of the compound; format: ADME
[3] = Cmax value at the period of 800 mg po for every 8 hr.; format: ADME, organism-based; set-up: dose 800 mg, route oral; details: in vivo
[4] = Oral bioavailability in dog; format: ADME, organism-based, Canis lupus familiaris; details: in vivo, read-out: Bioavailabiility
[5] = molecular target: Prothrombin (Homo sapiens, UniProt P00734)
[6] = The inhibition against liver metastases at 100 ug/mL.; format: ADME, tissue-based
[7] = molecular target: Caspase-3 (Homo sapiens, UniProt P42574); test: Inhibitory activity against caspase-3.
[8] = molecular target: T1, Caspase-1 (Homo sapiens, UniProt P29466)
T1 sequence (P29466 whole entry): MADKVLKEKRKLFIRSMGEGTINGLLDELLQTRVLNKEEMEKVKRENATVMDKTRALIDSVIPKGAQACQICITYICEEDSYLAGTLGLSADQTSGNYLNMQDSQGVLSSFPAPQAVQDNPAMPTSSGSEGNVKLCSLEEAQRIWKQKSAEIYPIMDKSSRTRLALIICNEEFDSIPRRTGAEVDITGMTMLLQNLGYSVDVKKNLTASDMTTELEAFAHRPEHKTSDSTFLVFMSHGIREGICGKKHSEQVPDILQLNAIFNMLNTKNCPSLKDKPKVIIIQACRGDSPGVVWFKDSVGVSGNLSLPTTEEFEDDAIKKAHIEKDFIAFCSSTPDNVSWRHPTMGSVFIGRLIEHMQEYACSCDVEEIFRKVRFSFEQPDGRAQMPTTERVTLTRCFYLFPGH

[9] = Inhibitory concentration required to reduce hemorrhage by 50%at the dose of 15 n mol /animal,72 hr prior to elastase.; format: functional
[10] = molecular target: 72 kDa type IV collagenase (Homo sapiens, UniProt P08253)
[11] = molecular target: T2, Matrix metalloproteinase-9 (Homo sapiens, UniProt P14780)
[12] = molecular target: Neutrophil collagenase (Homo sapiens, UniProt P22894); test: Inhibition of matrix metalloprotease-8 (MMP-8).
[13] = molecular target: T3, Interstitial collagenase (Homo sapiens, UniProt P03956)
T3 sequence (P03956 whole entry): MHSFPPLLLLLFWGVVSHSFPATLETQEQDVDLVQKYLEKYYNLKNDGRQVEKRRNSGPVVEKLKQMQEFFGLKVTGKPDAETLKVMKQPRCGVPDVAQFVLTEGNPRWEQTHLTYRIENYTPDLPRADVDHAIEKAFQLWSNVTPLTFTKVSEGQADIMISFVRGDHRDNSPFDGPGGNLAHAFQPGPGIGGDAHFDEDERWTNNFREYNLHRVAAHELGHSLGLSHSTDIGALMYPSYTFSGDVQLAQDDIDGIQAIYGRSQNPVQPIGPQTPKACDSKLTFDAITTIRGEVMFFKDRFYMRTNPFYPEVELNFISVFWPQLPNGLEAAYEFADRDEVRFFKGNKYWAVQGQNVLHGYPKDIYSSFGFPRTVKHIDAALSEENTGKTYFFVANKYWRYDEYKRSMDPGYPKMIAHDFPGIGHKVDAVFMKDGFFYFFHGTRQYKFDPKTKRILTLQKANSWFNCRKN

[14] = molecular target: Collagenase 3 (Homo sapiens, UniProt P45452)
[15] = molecular target: T4, Neprilysin (Rattus norvegicus, UniProt P07861); test: Inhibitory activity against neutral Endopeptidase
T4 sequence (P07861 whole entry): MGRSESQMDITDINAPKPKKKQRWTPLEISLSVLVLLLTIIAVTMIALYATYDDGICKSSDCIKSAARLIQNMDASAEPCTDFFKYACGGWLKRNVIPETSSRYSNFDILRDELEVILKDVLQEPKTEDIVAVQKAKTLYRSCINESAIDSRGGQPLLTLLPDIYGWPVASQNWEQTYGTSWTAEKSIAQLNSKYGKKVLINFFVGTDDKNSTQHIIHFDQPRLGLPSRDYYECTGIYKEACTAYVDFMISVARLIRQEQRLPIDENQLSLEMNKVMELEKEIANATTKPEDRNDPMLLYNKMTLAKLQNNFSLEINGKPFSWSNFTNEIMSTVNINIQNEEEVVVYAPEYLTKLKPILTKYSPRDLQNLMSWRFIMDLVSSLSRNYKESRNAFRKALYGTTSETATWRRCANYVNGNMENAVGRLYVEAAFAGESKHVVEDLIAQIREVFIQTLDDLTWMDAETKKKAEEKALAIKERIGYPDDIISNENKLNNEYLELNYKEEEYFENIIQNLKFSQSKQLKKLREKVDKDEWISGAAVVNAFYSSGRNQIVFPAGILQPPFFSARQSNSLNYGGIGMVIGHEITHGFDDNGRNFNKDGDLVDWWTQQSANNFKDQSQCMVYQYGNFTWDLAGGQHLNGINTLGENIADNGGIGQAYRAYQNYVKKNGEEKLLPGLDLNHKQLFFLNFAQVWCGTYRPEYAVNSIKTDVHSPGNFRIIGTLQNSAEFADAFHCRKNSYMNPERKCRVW

[16] = molecular target: T5, Renin (Homo sapiens, UniProt P00797); test: Inhibitory concentration against renin.
T5 sequence (P00797 whole entry): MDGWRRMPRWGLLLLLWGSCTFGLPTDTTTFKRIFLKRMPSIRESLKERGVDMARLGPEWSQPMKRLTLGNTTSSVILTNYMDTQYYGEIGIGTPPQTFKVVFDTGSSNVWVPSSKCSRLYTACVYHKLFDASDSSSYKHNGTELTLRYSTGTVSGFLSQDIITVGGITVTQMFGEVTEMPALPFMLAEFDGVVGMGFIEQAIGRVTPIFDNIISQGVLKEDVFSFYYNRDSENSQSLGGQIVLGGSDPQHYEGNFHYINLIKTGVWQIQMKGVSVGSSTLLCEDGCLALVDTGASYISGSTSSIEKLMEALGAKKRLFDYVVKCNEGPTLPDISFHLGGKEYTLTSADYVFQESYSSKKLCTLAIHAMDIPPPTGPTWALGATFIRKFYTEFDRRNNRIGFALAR

[17] = Inhibitory concentration against several aspartic proteases of Candida albicans
[18] = molecular target: Cathepsin D (Homo sapiens, UniProt P07339); test: Inhibitory concentration against cathepsin D
[19] = molecular target: T2, Matrix metalloproteinase-9; test: Inhibition of matrix metalloprotease-9 (MMP-9).
[20] = molecular target: T3, Interstitial collagenase; test: Inhibition of matrix metalloprotease-1 (MMP-1).
[21] = molecular target: Matrilysin (Homo sapiens, UniProt P09237); test: Inhibition of matrix metalloprotease-7 (MMP-7).
Sequence of Matrilysin (P09237 whole entry): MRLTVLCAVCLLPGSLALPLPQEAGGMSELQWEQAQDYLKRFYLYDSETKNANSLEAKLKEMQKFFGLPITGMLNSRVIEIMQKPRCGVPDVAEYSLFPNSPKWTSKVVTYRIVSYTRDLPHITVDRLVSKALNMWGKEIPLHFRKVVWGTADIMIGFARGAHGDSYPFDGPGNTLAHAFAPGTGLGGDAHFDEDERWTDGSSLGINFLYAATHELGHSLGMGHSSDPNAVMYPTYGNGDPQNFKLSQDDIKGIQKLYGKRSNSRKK

T2 sequence (P14780 whole entry): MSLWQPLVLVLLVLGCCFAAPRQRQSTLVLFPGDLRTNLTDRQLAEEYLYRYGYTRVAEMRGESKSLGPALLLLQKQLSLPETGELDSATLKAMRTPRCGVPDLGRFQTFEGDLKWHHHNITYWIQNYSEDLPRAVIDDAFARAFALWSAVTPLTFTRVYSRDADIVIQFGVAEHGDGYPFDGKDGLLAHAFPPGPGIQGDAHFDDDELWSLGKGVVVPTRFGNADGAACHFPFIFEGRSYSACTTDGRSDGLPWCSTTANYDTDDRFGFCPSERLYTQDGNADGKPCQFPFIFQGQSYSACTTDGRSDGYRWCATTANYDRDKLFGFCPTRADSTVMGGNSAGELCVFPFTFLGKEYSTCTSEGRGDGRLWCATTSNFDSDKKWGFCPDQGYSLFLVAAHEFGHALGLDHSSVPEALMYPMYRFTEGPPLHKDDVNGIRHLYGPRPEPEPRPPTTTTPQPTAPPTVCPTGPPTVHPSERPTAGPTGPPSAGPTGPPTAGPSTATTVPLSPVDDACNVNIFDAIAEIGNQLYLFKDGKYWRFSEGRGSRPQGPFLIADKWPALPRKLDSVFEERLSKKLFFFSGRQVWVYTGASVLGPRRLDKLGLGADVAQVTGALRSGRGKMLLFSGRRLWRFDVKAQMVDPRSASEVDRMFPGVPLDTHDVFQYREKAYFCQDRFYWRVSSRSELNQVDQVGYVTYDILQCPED
Sequence of 72 kDa type IV collagenase (P08253 whole entry): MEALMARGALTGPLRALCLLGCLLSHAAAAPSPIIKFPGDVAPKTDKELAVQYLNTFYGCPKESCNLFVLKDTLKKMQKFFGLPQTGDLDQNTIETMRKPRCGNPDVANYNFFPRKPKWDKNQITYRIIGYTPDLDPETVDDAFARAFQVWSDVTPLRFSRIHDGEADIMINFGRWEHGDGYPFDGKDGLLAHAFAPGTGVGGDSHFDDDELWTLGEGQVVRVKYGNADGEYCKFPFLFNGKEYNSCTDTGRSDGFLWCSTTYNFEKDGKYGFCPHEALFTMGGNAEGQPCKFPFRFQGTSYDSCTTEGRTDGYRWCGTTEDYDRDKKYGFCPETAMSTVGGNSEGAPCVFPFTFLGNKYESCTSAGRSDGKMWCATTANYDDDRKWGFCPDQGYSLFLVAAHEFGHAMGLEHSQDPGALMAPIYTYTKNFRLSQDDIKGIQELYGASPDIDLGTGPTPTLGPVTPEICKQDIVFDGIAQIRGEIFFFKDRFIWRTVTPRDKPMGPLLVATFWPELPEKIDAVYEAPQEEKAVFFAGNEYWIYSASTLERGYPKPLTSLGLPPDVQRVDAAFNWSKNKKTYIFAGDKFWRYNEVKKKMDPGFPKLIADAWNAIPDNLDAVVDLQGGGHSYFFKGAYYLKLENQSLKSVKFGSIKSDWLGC
Sequence of Caspase-3 (P42574 29-175 limits assumed): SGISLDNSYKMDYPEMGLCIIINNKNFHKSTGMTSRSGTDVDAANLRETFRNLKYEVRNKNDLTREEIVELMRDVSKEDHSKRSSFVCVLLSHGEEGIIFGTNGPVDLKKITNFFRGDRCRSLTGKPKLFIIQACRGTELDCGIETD
Sequence of Caspase-3 (P42574 176-277 limits assumed): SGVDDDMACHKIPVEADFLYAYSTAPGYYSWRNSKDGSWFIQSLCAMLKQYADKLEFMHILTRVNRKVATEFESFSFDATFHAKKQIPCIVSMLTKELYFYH
Sequence of Cathepsin D (P07339 65-162 limits assumed): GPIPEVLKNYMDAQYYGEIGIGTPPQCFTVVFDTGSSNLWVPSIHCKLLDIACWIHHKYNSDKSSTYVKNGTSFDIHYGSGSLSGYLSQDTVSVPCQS
Sequence of Cathepsin D (P07339 169-412 limits assumed): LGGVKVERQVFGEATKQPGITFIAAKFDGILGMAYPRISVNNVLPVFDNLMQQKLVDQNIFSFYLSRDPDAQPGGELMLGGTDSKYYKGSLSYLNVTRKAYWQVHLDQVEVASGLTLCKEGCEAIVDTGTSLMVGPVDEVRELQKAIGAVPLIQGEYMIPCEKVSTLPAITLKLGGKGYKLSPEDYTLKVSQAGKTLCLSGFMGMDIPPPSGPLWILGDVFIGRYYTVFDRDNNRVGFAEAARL
Sequence of Neutrophil collagenase (P22894 whole entry): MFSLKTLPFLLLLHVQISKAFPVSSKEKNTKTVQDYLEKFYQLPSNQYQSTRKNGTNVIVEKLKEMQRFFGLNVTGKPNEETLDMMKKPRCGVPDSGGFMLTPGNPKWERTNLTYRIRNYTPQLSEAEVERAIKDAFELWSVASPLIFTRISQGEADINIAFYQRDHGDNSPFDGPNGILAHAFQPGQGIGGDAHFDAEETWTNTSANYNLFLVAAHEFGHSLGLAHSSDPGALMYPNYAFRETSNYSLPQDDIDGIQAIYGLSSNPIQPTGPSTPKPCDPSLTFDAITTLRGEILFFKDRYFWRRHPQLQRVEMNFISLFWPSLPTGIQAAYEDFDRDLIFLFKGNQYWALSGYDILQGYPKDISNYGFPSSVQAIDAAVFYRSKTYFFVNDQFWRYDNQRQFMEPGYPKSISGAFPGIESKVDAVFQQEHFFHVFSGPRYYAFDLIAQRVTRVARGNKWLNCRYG

IC50 [9]: 26 nM
SMILES: CC(C)C(NC(=O)c1ccc(S(=O)(=O)NC(=O)c2ccc(Cl)c(S(=O)(=O)NC(=O)CSc3cc(C(C)(C)C)c(O)c(C(C)(C)C)c3)c2)cc1)C(=O)N1Cc2ccccc2C1C(=O)NC(C(=O)C(F)(F)F)C(C)C (stereo not drawn)

Ki [10]: 154 nM
Ki [11]: 59 nM
Ki [12]: 4 nM
SMILES: CN1C(=O)N(C[C@H](C(=O)NO)[C@@H](CC2CCCC2)C(=O)N2CCCCC2)C(=O)C1(C)C

Ki [15]: 5.6 nM
SMILES: C[C@H](NC(=O)[C@@H](CS)Cc1ccc2c(c1)OCO2)C(=O)O

IC50 [16]: 7.1 nM
IC50 [17]: 1.4 nM
IC50 [18]: 770 nM
SMILES: CCCC[C@@H](C(=O)N[C@@H](CC1CCCCC1)[C@@H](O)C[C@H](C(=O)NCCC)C(C)C)N1CCN(C(=O)N2CCN(C)CC2)[C@H](Cc2ccccc2)C1=O

More lines, now with the values behind:

SMILES: CC(=O)NC[C@@H](C=O)NC(=O)[C@H](Cc1ccccc1)NC(=O)[C@H](CC(C)C)NC(=O)OCc1ccccc1 (Cbz-Leu-Phe-[Dap](Ac)-aldehyde)
Ki [1]: 6 nM

SMILES: CC(C)(C)NC(=O)[C@@H]1CN(Cc2cccnc2)CCN1C[C@@H](O)C[C@@H](Cc1ccccc1)C(=O)N[C@H]1c2ccccc2C[C@H]1O.O
Tmax [2]: 1 h
Cmax [3]: 12 µM
bioavailability [4]: 90%

SMILES: N=C(N)N1CCC[C@H](C(=O)NC[C@@H]2CCCN2C(=O)[C@H](CO)NS(=O)(=O)c2ccc3ccccc3c2)C1
Ki [5]: 3.6 nM

SMILES: CC(C)C[C@H](NC(=O)[C@H]1O[C@@H]1C(=O)O)C(=O)NCCCCN=C(N)N [E-64]
Inhibition [6]: 90%

SMILES: O=C1C[C@H](NC(=O)[C@@H]2CCC[C@@H]3CCC[C@H](NC(=O)OCc4ccccc4)C(=O)N32)C(O)O1 (stereo partly drawn)
IC50 [7]: > 10000 nM
IC50 [8]: 36 nM

SMILES: O=C(C[C@H](CSc1ccccc1)C(=O)O)c1ccc(-c2ccc(Cl)cc2)cc1 [TANOMASTAT]
Ki [10]: 11 nM
Ki [11]: 301 nM
Ki [13]: 5000 nM
Ki [14]: 1470 nM

SMILES: COc1ccc(S(=O)(=O)N2CC(C)(C)CN(S(=O)(=O)c3ccc(OC)cc3)C2C(=O)NO)cc1
Ki [19]: 30 nM
Ki [20]: 24 nM
Ki [21]: 30 nM
